# What was measured:
# [1] = target: proMMP13(1-268) (SEQ ID NO:7) (Homo sapiens, UniProt P45452); test: ThermoFluor binding assay with proMMP13(1-268); design: 6xHis (C); made in house; settings: pH 7.0
# Procedure, shortened: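 Thermal shift binding with 3.5 μM protein and 25 μM 1,8-ANS in 50 mM HEPES pH 7.0, 100 mM NaCl, 0.001% Tween-20, 2.5 mM MgCl2, 300 μM CaCl2. Samples were heated 40 to 90 °C at 1 °C/min, fluorescence read at 500 nm. Tm shifts across an 11-point DMSO dilution series were fitted with DSC-derived thermodynamic parameters.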
# SCW-induced arthritis = test: Efficacy in rats with SCW-induced arthritis (ankle thickness, clinical scores); format: in vivo, rat; settings: 5, 20, 50 mg/kg BID oral
# Excerpt: A polyarthritis can be induced in female Lewis rats following i.p. administration of streptococcal cell wall (SCW) […] (PG-PS) (J Exp Med 1977; 146:1585-1602). The model has an acute phase (days 3-7) that is complement and neutrophil-dependent and that resolves. A chronic erosive phase begins at about day ten and is dependent on the development of specific T cell immunity to the PG-GS, which resists digestion and remains present in synovial macrophages for months. Like rheumatoid arthritis, SCW-induced arthritis is reduced by TNF inhibitors, and the dependence of SCW-induced arthritis on macrophages (Rheumatology; 2001; 40:978-987) and the strong association of rheumatoid arthritis severity with synovial-tissue macrophage counts (Ann Rheum Dis; 2005; 64:834-838) makes SCW-arthritis an attractive model for testing potential therapeutic agents. SCW PG-PS 10S (Beckton Dickinson Cat#210866) suspended in saline was vortexed for 30 seconds and sonicated for 3 min with a probe type sonicator prior to injection. […]
# To induce arthritis, Female Lewis (LEW/N) rats, 5-6 weeks of age (80-100 g) were injected (i.p.) with SCW PG-PS as described above. […] Each ankle was measured 3 times and averaged, and treatment groups were randomized based on ankle thickness (Table 6). […]
smiles,measurement,setting,value
"Cc1nc(C)c(-c2csc(Nc3cc(S(N)(=O)=O)ccc3OC(C)C)n2)s1 [Example 64, 3-(2′,4′-Dimethyl-[4,5′]bithiazolyl-2-ylamino)-4-isopropoxy-benzenesulfonamide.HBr]",Kd,[1],140 nM
same,"ankle thickness measurements, effect of treatment",SCW-induced arthritis; Day 18-26,dose-dependent decrease in ankle thickness measurements
same,"clinical score measurements, effect of treatment",SCW-induced arthritis; significant effects emerging at 20 mg/kg,dose dependent decrease in clinical score measurements
